Experiments:
human ES cells = assay: Seeding of individualized human ES cells in 96-well plates; format: cell-based; settings: similar to HA-100 but at 10-fold lower concentration
[1] = system: Rho-associated kinase (ROCK); settings: cited from earlier work

For Cc1cncc2cccc(S(=O)(=O)N3CCCNC[C@@H]3C)c12 [Clone H-1152, (S)-(+)-2-Methyl-1-[(4-methyl-5-isoquinolinyl)sulfonyl]homopiperazine], the “seeding of individualized human ES cells” value (human ES cells) is given as “very efficient seeding” and the “potency relative to HA-100” value [1] is given as “approximately ten-fold”.

From patent US10947499B2, “Selection of stem cell clones with defined differentiation capabilities” (Research Development Foundation, priority 2009, dated 2021)
